This note sets out measurements from BindingDB's records for patent US20190276450 (Abbvie, 2019).

Where only a bound is given, the exact number is not on record here.

The target of experiment [1] is Tyrosine-protein kinase JAK1 (Homo sapiens, UniProt P23458). The experiment in a line: JAK1 (PSTAT3 TF1) Alpha Screen Assay. As to the method:
IL-6 is known to transduce its signal through IL-6 receptor via Jak1. Activity against Jak was therefore measured by determining inhibition of IL-6 induced phosphorylation of STAT3 in TF1 cells. From these tests, the EC50 (effective concentration for 50% maximal response) values were determined in 1 μM for the test compounds.

The target of experiment [2] is Non-receptor tyrosine-protein kinase TYK2 (Homo sapiens, UniProt P29597). The experiment in a line: TYK2 (TYK2/JAK2 PSTAT4 T-BLAST) Alpha Screen Assay. How it is done: IL-12 is known to transduce its signal through IL-12 receptor via Jak2 and/or Tyk2. For that reason, the activity against Tyk2/Jak2 was measured by determining the inhibition of IL-12 induced phosphorylation of STAT4 in T-blast cells. […] See, e.g., Sohn et al., J. Immunology (2013) 2205-2216.
Chain of Non-receptor tyrosine-protein kinase TYK2 (P29597 whole entry): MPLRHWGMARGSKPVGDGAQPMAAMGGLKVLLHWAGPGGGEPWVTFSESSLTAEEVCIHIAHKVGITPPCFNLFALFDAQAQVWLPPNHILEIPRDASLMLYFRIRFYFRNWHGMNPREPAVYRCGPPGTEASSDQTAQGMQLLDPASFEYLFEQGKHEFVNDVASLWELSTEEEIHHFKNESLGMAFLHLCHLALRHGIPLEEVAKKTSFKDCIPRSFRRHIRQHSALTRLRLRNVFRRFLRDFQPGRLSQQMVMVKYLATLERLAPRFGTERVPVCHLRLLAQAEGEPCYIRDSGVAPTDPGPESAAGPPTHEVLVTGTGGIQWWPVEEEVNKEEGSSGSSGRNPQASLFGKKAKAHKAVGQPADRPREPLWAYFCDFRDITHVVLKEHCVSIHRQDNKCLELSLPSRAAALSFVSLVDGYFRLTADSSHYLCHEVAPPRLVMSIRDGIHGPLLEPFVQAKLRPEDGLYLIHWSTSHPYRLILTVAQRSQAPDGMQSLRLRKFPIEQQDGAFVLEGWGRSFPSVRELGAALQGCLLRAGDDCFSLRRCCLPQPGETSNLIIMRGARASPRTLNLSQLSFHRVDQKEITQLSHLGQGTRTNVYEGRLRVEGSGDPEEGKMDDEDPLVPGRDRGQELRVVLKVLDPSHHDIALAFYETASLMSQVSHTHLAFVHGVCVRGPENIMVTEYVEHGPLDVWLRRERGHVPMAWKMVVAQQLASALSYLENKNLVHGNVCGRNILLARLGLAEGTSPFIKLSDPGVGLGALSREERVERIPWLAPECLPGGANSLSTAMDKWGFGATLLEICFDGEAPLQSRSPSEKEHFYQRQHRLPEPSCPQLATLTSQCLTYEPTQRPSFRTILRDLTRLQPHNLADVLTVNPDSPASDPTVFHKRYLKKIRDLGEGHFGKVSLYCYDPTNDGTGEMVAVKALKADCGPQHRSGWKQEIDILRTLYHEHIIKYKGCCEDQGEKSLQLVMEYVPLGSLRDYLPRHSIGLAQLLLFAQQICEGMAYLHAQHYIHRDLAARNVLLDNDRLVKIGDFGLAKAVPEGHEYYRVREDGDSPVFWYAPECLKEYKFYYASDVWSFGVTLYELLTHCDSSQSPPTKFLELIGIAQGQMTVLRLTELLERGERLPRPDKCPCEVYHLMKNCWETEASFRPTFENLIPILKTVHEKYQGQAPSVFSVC

Experiment [3] has as its target Tyrosine-protein kinase JAK2 (Homo sapiens, UniProt O60674). The experiment can be described thus: JAK2 (PSTAT5 UT7) Alpha Screen Assay. How it is done: Erythropoietin (EPO) is known to transduce its signal through EPO receptor via Jak2. Activity against Jak2 was therefore measured by determining inhibition of EPO induced phosphorylation of […] in UT7 cells. From these tests, the EC50 (effective concentration for 50% maximal response) values were determined in 1 μM for the test compounds.

Chain of Tyrosine-protein kinase JAK1 (P23458 whole entry): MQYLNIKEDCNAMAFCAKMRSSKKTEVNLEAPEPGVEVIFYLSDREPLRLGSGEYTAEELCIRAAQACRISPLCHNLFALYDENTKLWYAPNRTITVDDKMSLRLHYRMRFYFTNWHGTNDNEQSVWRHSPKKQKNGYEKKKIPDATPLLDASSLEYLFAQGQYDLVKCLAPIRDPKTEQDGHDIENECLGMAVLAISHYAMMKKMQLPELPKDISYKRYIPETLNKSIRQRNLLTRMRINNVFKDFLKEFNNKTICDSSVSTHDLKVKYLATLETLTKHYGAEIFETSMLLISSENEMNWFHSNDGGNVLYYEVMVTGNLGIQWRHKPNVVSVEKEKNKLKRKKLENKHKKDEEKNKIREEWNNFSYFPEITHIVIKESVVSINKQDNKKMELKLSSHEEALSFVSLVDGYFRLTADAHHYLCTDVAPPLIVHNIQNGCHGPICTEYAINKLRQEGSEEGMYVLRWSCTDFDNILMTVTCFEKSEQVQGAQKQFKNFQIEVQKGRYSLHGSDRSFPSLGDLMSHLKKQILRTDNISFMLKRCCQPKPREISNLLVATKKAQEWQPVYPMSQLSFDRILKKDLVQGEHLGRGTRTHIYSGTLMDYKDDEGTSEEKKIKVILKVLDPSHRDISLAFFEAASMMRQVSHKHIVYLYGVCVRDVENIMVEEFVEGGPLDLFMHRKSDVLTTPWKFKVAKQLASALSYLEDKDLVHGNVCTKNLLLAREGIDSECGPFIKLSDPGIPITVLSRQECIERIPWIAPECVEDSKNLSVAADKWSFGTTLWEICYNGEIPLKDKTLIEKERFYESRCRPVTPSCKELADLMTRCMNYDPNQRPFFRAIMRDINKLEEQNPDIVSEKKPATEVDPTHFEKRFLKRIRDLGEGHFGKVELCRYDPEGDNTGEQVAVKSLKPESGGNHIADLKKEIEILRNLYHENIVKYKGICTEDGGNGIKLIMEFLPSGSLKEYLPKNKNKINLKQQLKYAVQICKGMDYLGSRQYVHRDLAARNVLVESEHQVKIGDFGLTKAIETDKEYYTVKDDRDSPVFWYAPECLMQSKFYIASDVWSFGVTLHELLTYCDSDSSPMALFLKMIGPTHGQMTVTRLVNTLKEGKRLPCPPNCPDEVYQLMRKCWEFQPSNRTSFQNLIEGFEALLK
Chain of Tyrosine-protein kinase JAK2 (O60674 whole entry): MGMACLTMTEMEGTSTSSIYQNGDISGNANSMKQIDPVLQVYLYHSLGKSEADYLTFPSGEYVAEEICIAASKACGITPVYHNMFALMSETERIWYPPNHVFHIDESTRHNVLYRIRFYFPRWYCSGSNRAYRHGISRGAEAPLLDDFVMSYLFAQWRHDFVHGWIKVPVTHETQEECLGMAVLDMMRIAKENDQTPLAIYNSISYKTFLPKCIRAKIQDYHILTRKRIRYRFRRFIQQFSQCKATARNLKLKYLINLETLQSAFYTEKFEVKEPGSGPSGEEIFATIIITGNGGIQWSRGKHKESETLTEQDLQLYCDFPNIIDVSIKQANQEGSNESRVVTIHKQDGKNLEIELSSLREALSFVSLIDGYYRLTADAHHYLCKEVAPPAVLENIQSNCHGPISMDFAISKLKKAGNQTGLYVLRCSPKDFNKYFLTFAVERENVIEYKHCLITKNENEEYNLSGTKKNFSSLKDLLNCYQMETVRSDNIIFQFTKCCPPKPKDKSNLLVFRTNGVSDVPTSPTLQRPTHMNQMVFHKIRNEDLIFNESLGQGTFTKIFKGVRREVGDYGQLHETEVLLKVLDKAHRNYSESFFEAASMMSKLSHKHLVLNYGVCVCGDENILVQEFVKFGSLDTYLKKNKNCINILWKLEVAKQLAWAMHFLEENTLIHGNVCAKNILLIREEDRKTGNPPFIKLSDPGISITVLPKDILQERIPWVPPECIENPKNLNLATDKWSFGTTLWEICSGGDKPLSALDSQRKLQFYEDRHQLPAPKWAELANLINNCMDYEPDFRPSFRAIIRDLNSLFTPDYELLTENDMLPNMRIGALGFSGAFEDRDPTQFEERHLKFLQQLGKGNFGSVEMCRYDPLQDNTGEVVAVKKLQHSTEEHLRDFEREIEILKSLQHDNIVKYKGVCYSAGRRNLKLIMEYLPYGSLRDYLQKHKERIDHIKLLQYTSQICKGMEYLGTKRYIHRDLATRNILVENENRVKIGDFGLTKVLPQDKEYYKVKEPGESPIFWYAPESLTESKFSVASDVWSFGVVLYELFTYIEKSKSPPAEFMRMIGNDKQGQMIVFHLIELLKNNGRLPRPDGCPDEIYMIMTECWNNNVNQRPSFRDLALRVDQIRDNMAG

A word on the EC50: it is the concentration giving half of the maximal effect. Higher therefore signals lower potency in that assay. On to `CO[C@H](C)COc1cc(-c2cn(C)c3cnc(NC(C)=O)cc23)nc([C@]2(OC)CCOC2)c1` [US20190276450, Example 22.10], for which the EC50 in experiment [1] is > 25 µM; in experiment [2] it was 0.092 µM; in experiment [3], > 25 µM.

As for `COCc1cc(-c2cn(C3COC3)c3cnc(NC(C)=O)cc23)nc([C@]2(OC)CCOC2)c1` [US20190276450, Example 4], the values for the 50% effective concentration (EC50) in experiment [1], in experiment [2] and in experiment [3] were > 100 µM, 0.137 µM and > 25 µM, respectively.

Consider `Cn1cc(-c2cncc([C@]3(C)CCOC3)n2)c2cc(NC(N)=O)ncc21` [US20190276450, Example 1b.5], for which the EC50 is 1.5 µM in experiment [1], 0.018 µM in experiment [2] and > 25 µM in experiment [3].

For `CO[C@@]1(c2cncc(-c3cn(C)c4cnc(NC(N)=O)cc34)n2)CCOC1` [US20190276450, Example 12], the EC50 is 16.2 µM in experiment [1], 0.244 µM in experiment [2] and > 25 µM in experiment [3].

`COCc1cc(-c2cn(C)c3cnc(NC(N)=O)cc23)nc([C@]2(OC)CCOC2)c1` [US20190276450, Example 3]: the EC50 is 18 µM in experiment [1], 0.035 µM in experiment [2] and > 25 µM in experiment [3].
